Test results published in patent publication US20240158383A1, “RIBONUCLEOTIDE REDUCTASE (RNR) INHIBITORS AND USES THEREOF” (Boundless Bio, Inc., priority 2021, published 2024).

Experiments:
[1] = test system: pCHK1 (S345) in Colo320 DM cells; experiment: CHK1 cellular activity (phospho-CHK1 AlphaLisa); type: cell-based, human; conditions: Homo sapiens, COLO 320DM, 16 h, compound overnight (approximately 16 hours)
How it was run: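 Colo320 DM cells (50,000/well, RPMI-1640 with 10% FBS) were treated with compound overnight (~16 h) at 37 °C, final DMSO <0.5%. Lysates were assayed for pCHK1 (S345) by AlphaLisa SureFire, a replication-stress marker downstream of RNR inhibition.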

RNR (RNR1:RNR2) = RNR (RNR1:RNR2) (Homo sapiens (Human), UniProt P23921+P31350); experiment: RNR enzyme activity, rapid-fire mass spectrometry (RFMS) assay; type: biochemical; conditions: [RNR] 50 nM, 1:1 RNR1:RNR2, [CDP] 5 μM, [ATP] 1 mM, 37° C., 45 min
RNR (RNR1:RNR2), sequence (P23921 whole entry): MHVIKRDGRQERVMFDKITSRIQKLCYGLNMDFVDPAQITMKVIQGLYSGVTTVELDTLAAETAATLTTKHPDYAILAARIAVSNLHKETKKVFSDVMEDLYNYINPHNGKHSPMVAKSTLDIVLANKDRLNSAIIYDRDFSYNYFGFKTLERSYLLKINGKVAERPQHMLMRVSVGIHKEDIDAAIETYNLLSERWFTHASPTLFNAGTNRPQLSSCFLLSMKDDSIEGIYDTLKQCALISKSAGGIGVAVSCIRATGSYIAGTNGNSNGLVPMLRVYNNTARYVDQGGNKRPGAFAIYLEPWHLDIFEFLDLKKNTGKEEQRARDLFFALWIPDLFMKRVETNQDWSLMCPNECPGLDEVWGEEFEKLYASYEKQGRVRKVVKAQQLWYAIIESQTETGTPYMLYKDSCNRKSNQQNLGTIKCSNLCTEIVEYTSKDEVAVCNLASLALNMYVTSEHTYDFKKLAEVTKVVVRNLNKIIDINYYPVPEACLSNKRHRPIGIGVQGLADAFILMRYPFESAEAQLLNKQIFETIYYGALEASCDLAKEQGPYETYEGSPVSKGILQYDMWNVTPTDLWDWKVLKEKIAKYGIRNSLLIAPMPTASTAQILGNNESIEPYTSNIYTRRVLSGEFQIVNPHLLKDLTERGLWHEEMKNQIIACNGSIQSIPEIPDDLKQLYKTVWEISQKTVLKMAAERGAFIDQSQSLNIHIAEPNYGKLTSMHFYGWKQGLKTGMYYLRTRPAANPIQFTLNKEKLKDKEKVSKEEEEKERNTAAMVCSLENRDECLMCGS
RNR (RNR1:RNR2), sequence (P31350 whole entry): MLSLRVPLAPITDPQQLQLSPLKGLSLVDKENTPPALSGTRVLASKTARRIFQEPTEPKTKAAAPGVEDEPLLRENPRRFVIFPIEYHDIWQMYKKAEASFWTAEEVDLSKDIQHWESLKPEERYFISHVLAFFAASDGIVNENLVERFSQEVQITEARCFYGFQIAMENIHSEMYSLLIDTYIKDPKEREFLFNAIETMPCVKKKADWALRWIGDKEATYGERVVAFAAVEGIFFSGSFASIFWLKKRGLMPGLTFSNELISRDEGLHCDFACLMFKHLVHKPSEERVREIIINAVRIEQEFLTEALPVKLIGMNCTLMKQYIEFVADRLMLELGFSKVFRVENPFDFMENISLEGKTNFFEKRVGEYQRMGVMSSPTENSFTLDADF
How it was run: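 RNR1:RNR2 (1:1, 50 nM final) was preincubated 15 min at room temperature with compound (10 nM–30 μM), then reacted 45 min at 37° C. with 5 μM CDP and 1 mM ATP, without NADPH. Reactions were stopped with 6% formic acid and read by RapidFire mass spectrometry.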

Row | Structure (SMILES) | IC50 [1] [µM] | IC50 (RNR (RNR1:RNR2)) [µM]
1 | Cc1ccc(F)c([C@@H](C)[C@H](NS(=O)(=O)c2ccc(Cl)c3c2OCCN3C)c2nn[nH]n2)c1C [Example 29, 5-chloro-N-((1S,2R)-2-(6-fluoro-2,3-dimethylphenyl)-1-(2H-tetrazol-5-yl)propyl)-4-methyl-3,4-dihydro-2H-benzo[b][1,4]oxazine-8-sulfonamide] | ≤ 10 | ≤ 0.1
2 | COc1c(S(=O)(=O)N[C@H](c2nn[nH]n2)[C@H](C)c2c(F)ccc(C)c2C)ccc(C#N)c1F (racemic) [Example 70, rac-4-cyano-3-fluoro-N-((1R,2S)-2-(6-fluoro-2,3-dimethylphenyl)-1-(2H-tetrazol-5-yl)propyl)-2-methoxybenzenesulfonamide] | 50 to 100 | 0.1 to 1
3 | COc1cc(Cl)ccc1S(=O)(=O)N[C@H](c1nnn(C)n1)[C@H](C)c1c(F)ccc(C)c1C [Example 35, 4-chloro-N-((1S,2R)-2-(6-fluoro-2,3-dimethylphenyl)-1-(2-methyl-2H-tetrazol-5-yl)propyl)-2-methoxybenzensulfonamide] | 50 to 100 | 5 to 30
4 | Cc1cc(S(=O)(=O)N[C@H](c2nn[nH]n2)[C@H](C)c2c(F)ccc(C)c2C)c(C)cc1Cl [Example 31, 4-chloro-N-((1S,2R)-2-(6-fluoro-2,3-dimethylphenyl)-1-(2H-tetrazol-5-yl)propyl)-2,5-dimethylbenzenesulfonamide] | 50 to 100 | 1 to 5
5 | Cc1ccc(F)c([C@@H](C)[C@H](NS(=O)(=O)c2ccc(Cl)cc2C(N)=O)c2nn[nH]n2)c1C [Example 2, 5-chloro-2-(N-((1S,2R)-2-(6-fluoro-2,3-dimethylphenyl)-1-(2H-tetrazol-5-yl)propyl)sulfamoyl)benzamide] | 50 to 100 | ≤ 0.1
6 | Cc1ccc(F)c([C@@H](C)[C@H](NS(=O)(=O)c2ccc(Cl)c3nonc23)c2nn[nH]n2)c1C [Example 46] | 50 to 100 | 0.1 to 1
7 | Cc1ccc(Cl)cc1S(=O)(=O)N[C@H](c1nn[nH]n1)[C@H](C)c1c(F)ccc(C)c1C [Example 53, 5-chloro-N-((1S,2R)-2-(6-fluoro-2,3-dimethylphenyl)-1-(2H-tetrazol-5-yl)propyl)-2-methylbenzenesulfonamide] | 50 to 100 | 5 to 30
8 | Cc1ccc(F)c([C@@H](C)[C@H](NS(=O)(=O)c2ccc(Cl)cc2N2CCCCC2)c2nn[nH]n2)c1C [Example 80, 4-chloro-N-((1S,2R)-2-(6-fluoro-2,3-dimethylphenyl)-1-(2H-tetrazol-5-yl)propyl)-2-(piperidin-1-yl)benzensulfonamide] | 30 to 50 | 0.1 to 1
9 | Cc1ccc(F)c([C@@H](C)[C@H](NS(=O)(=O)c2ccc(Cl)c(Cl)c2)c2nn[nH]n2)c1C [Example 32, 3,4-dichloro-N-((1S,2R)-2-(6-fluoro-2,3-dimethylphenyl)-1-(2H-tetrazol-5-yl)propyl)benzenesulfonamide] | 50 to 100 | 0.1 to 1
10 | Cc1ccc(F)c([C@@H](C)[C@H](NS(=O)(=O)c2cc(Cl)ccc2F)c2nn[nH]n2)c1C [Example 44] | 50 to 100 | 1 to 5
